Experimental data from patent US20240287138A1, “CYCLIC PEPTIDES FOR INHIBITING TNF RECEPTOR 1 ACTIVITY” (Merck Sharp & Dohme LLC, priority 2023, published 2024).
Numbered stars: 1 amine (or outer) side, 2 acyl side, 3 side chain; on linkers, the order of the positions; unused ones are H or OH. Bridge positions count the residues as written; N and C are the ends. Square brackets hold non-standard residues; d marks the D form. Peptide text beside a SMILES is read from it. Trp(βS-Me,7-OMe) = COc1cccc2c([C@H](C)[C@H](N)C(=O)O)c[nH]c12; X5 = COc1cccc2[nH]cc([C@H](C)[C@H](N[*:1])C(=O)[*:2])c12; Phe(4-CH2COOH) = N[C@@H](Cc1ccc(CC(=O)O)cc1)C(=O)O; Trp(7-CN) = N#Cc1cccc2c(C[C@H](N)C(=O)O)c[nH]c12; Trp(7-Cl) = N[C@@H](Cc1c[nH]c2c(Cl)cccc12)C(=O)O; Phe(3-CONH2) = NC(=O)c1cccc(C[C@H](N)C(=O)O)c1; Phe(4-CONH2) = NC(=O)c1ccc(C[C@H](N)C(=O)O)cc1; Phe(4-COOH) = N[C@@H](Cc1ccc(C(=O)O)cc1)C(=O)O; Trp(7-aza) = N[C@@H](Cc1c[nH]c2ncccc12)C(=O)O; Phe(4-CH2NH2) = NCc1ccc(C[C@H](N)C(=O)O)cc1; Pip(5R-OH) = O=C(O)[C@@H]1CC[C@@H](O)CN1; αMeW = C[C@](N)(Cc1c[nH]c2ccccc12)C(=O)O; X1 = O=C([C@@H]1CC[C@H](N[*:1])C1)[*:2]; Pip(4-aza) = O=C(O)[C@@H]1CNCCN1; 4Pal = N[C@@H](Cc1ccncc1)C(=O)O; NMeE = CN[C@@H](CCC(=O)O)C(=O)O; dHyp = O=C(O)[C@H]1C[C@H](O)CN1; Ahp(2) = CCCCC[C@H](N)C(=O)O; NMeS = CN[C@@H](CO)C(=O)O; Pip = O=C(O)[C@@H]1CCCCN1; αMeS = C[C@](N)(CO)C(=O)O; Nle = CCCC[C@H](N)C(=O)O; Sar = CNCC(=O)O

Assays:
[1] = biological target: T1, human TNFR1 extracellular domain (ECD) protein (Homo sapiens, UniProt P19438); assay: SPR binding affinity to captured human TNFR1 ECD
T1 construct: HRV 3C protease cleavage site (C); 6His (C, cleaved yes); made in house; host or cells: Sf21 insect cells (baculovirus), secreted
T1 sequence (P19438 30-211): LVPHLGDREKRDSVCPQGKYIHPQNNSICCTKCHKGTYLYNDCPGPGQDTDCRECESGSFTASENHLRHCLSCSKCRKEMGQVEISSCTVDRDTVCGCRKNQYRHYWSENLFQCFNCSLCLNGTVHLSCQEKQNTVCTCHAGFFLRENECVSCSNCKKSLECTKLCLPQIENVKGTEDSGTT
Method in brief: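 Biotinylated human TNFR1 or TNFR2 ECD (C-terminal Avi-tag, Sf21-expressed) captured on a regenerable streptavidin chip; peptide analytes flowed in 10 mM HEPES pH 7.4, 150 mM NaCl, 3 mM EDTA, 0.05% P20, 2% DMSO. kon and koff measured; affinity calculated from the rate constants.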

[2] = biological target: T2, human soluble TNFR1 (sTNFR1) (Homo sapiens, UniProt P19438); assay: Human sTNFR1-peptide displacement assay (LanthaScreen Eu TR-FRET binding assay)
T2 construct: made in house; host or cells: Sf21 (baculovirus)
T2 sequence (P19438 with tags, fused parts or gaps): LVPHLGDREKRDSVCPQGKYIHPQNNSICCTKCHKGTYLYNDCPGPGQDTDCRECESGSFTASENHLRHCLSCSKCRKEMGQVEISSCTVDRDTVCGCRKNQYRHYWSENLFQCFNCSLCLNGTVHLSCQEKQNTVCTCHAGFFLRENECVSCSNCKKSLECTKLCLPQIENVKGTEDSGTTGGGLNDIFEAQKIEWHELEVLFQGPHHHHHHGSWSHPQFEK
Method in brief: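 Readout is the 665/615 nm TR-FRET ratio (Eu anti-His donor, streptavidin-Alexa647 acceptor), normalized to DMSO and saturating displacer, fit by Morrison-based five-parameter logistic for Kd^app. His-tagged sTNFR1 (1-211) prebound to 100 nM biotinylated peptide SEQ ID NO.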

| SMILES | Kd [1] [nM] | Kd [2] [nM] | IC50 [2] [nM] |
| --- | --- | --- | --- |
| CCCC[C@@H]1NC(=O)[C@@H]2CC[C@@H](C2)NC(=O)[C@H]([C@@H](C)c2c[nH]c3c(OC)cccc23)NC(=O)CN(C)C(=O)[C@H](Cc2ccc(C(N)=O)cc2)NC(=O)[C@H](Cc2ccc(C(N)=O)cc2)NC(=O)[C@](C)(CO)NC(=O)[C@H](Cc2c[nH]c3c(Cl)cccc23)NC(=O)[C@H](Cc2ccncc2)NC(=O)[C@H](CC(N)=O)NC(=O)[C@H](CCC(=O)O)N(C)C(=O)[C@H](Cc2c[nH]c3ncccc23)NC(=O)[C@@H]2CC[C@@H](O)CN2C(=O)[C@H](Cc2ccncc2)NC1=O [SEQ ID NO. 189] (cyclo([4Pal][Trp(7-Cl)][αMeS][Phe(4-CONH2)][Phe(4-CONH2)][Sar][Trp(βS-Me,7-OMe)][X1][Nle][4Pal][Pip(5R-OH)][Trp(7-aza)][NMeE]N)) | 0.1 | 0.01 | – |
| CCCCC[C@@H]1NC(=O)[C@@H]2CC[C@@H](C2)NC(=O)[C@H]([C@@H](C)c2c[nH]c3c(OC)cccc23)NC(=O)CN(C)C(=O)[C@H](Cc2ccc(OC)cc2)NC(=O)[C@H](Cc2ccc(C(N)=O)cc2)NC(=O)[C@](C)(CO)NC(=O)[C@H](Cc2c[nH]c3c(C#N)cccc23)NC(=O)[C@H](Cc2ccncc2)NC(=O)[C@H](CC(N)=O)NC(=O)[C@H]2C[C@H](O)CN2C(=O)[C@H](Cc2c[nH]c3ccccc23)NC(=O)[C@@H]2CNCCN2C(=O)[C@H](Cc2ccncc2)NC1=O [SEQ ID NO. 200] (cyclo([4Pal][Trp(7-CN)][αMeS][Phe(4-CONH2)]Y(Me)[Sar][Trp(βS-Me,7-OMe)][X1][Ahp(2)][4Pal][Pip(4-aza)]W[dHyp]N)) | 0.02 | 0.09 | – |
| CCCC[C@@H]1NC(=O)CSC[C@@H](C(N)=O)NC(=O)[C@H]([C@@H](C)c2c[nH]c3c(OC)cccc23)NC(=O)CN(C)C(=O)[C@H](Cc2ccc(O)cc2)NC(=O)[C@H](Cc2ccc(C(=O)O)cc2)NC(=O)[C@](C)(CO)NC(=O)[C@H](Cc2c[nH]c3c(Cl)cccc23)NC(=O)[C@H](Cc2ccncc2)NC(=O)[C@H](CC(N)=O)NC(=O)[C@H]2CCCN2C(=O)[C@H](Cc2c[nH]c3ccccc23)NC(=O)[C@@H]2CC[C@@H](O)CN2C(=O)[C@H](Cc2ccncc2)NC1=O [SEQ ID NO. 203] ({CH2CO}-[Nle][4Pal][Pip(5R-OH)]W[dP]N[4Pal][Trp(7-Cl)][αMeS][Phe(4-COOH)]Y[Sar][Trp(βS-Me,7-OMe)]C-NH2; thioether N-14) | 0.1 | 0.31 | – |
| CCCC[C@@H]1NC(=O)CSC[C@@H](C(N)=O)NC(=O)[C@](C)(Cc2c[nH]c3ccccc23)NC(=O)CN(C)C(=O)[C@H](Cc2ccc(O)cc2)NC(=O)[C@H](Cc2cccc(C(N)=O)c2)NC(=O)[C@](C)(CO)NC(=O)[C@H](Cc2c[nH]c3c(Cl)cccc23)NC(=O)[C@H](Cc2ccncc2)NC(=O)[C@H](CC(N)=O)NC(=O)[C@H](CCC(=O)O)N(C)C(=O)[C@H](Cc2c[nH]c3ncccc23)NC(=O)[C@H](CO)NC(=O)[C@H](Cc2ccc(CN)cc2)NC1=O [SEQ ID NO. 205] ({CH2CO}-[Nle][Phe(4-CH2NH2)]S[Trp(7-aza)][NMeE]N[4Pal][Trp(7-Cl)][αMeS][Phe(3-CONH2)]Y[Sar][αMeW]C-NH2; thioether N-14) | 0.6 | 1.01 | – |
| CCCC[C@@H]1NC(=O)CSC[C@@H](C(N)=O)NC(=O)[C@H]([C@@H](C)c2c[nH]c3cccc(OC)c23)NC(=O)CN(C)C(=O)[C@H](Cc2ccc(O)cc2)NC(=O)[C@H](Cc2ccc(C(N)=O)cc2)NC(=O)[C@](C)(CO)NC(=O)[C@H](Cc2c[nH]c3c(Cl)cccc23)NC(=O)[C@H](Cc2ccc(C(=O)O)cc2)NC(=O)[C@H](CC(N)=O)NC(=O)[C@H](CCC(=O)O)N(C)C(=O)[C@H](Cc2c[nH]c3ncccc23)NC(=O)[C@H](CO)N(C)C(=O)[C@H](Cc2ccncc2)NC1=O [SEQ ID NO. 209] ({CH2CO}-[Nle][4Pal][NMeS][Trp(7-aza)][NMeE]N[Phe(4-COOH)][Trp(7-Cl)][αMeS][Phe(4-CONH2)]Y[Sar][X5]C-NH2; thioether N-14) | 0.4 | 0.67 | 0.6 |
| CCCC[C@@H]1NC(=O)CSC[C@@H](C(N)=O)NC(=O)[C@H]([C@@H](C)c2c[nH]c3c(OC)cccc23)NC(=O)CN(C)C(=O)[C@H](Cc2ccc(O)cc2)NC(=O)[C@H](Cc2ccc(C(=O)O)cc2)NC(=O)[C@](C)(CO)NC(=O)[C@H](Cc2c[nH]c3c(Cl)cccc23)NC(=O)[C@H](Cc2ccc(CC(=O)O)cc2)NC(=O)[C@H](CC(N)=O)NC(=O)[C@H](CCC(=O)O)N(C)C(=O)[C@H](Cc2c[nH]c3ccccc23)NC(=O)[C@@H]2CCCCN2C(=O)[C@H](Cc2ccncc2)NC1=O [SEQ ID NO. 212] ({CH2CO}-[Nle][4Pal][Pip]W[NMeE]N[Phe(4-CH2COOH)][Trp(7-Cl)][αMeS][Phe(4-COOH)]Y[Sar][Trp(βS-Me,7-OMe)]C-NH2; thioether N-14) | 0.5 | 0.73 | 0.9 |
